Tests used:
NPSR1-Ile(107) = biological target: T1, NPSR1-Ile(107) (Homo sapiens, UniProt Q6W5P4, N107I); test: Real-time RT-PCR of downstream target genes in SH-SY5Y cells stably overexpressing NPSR1-Ile(107); type: cell-based; set-up: expressed in transfected cells; settings: SH-SY5Y over-expressing NPSR1-Ile(107), 0.0001–1 μM, 3 h, dose dependent
T1 sequence (Q6W5P4 1-371 N107I): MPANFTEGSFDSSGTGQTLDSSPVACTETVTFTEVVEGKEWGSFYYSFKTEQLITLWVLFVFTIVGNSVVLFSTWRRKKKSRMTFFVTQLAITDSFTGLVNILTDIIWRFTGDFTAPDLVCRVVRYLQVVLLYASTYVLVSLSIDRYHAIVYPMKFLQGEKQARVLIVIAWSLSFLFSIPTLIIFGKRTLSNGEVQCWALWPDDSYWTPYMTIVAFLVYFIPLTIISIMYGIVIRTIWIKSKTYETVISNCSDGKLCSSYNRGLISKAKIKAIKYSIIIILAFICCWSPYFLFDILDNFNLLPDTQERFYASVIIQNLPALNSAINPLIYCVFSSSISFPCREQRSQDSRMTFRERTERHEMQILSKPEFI
Experimental: Fig 2 Real time RT-PCR analysis of NPSR1 downstream target genes. (A) Time-dependent mRNA expression of NR4A1, FOS, CXCL2, and CCL20 in human embryonic kidney epithelial (HEK293) cells transiently transfected with either NPSR1-Ile(107) or NPSR1-Asn(107) coding variants and stimulated with either NPS-Val(6) or NPS-Leu(6) NPS (100 nM) for 1, 3, 6, and 24 h. (B) Dose-response curves of NR4A1, FOS, IER3, and EGR1 in human SH-SY5Y stable cell line over-expressing NPSR1-Ile(107) stimulated with either NPS-Leu(6) or NPS V6 (0.0001–1 μM) for 3 h. The results are presented as fold-changes in comparison to the unstimulated cells. GAPDH was used as the endogenous reference, and data are expressed as mean of triplicate samples. […] In all experiments, results were calculated with the comparative Ct method.
Altered neuroinflammatory mechanisms have been implicated in allergic airway inflammation. […] SH-SY5Y cells stably overexpressing NPSR1-Ile(107) were stimulated with either NPS-Leu(6) or NPS-Val(6) (0.0001–1 μM) for 3 h and the mRNA expression of known downstream target genes in these cells was detected using RT-PCR. […] These observations validated the results detected in HEK293 cells in an independent cell line.
The stable NPSR1-A-GFP expressing SH-SY5Y cells were engineered and cultured as described before. […] The changes in gene expression were analyzed with real-time PCR (RT-PCR). […]

phagocytosis = settings: cited from earlier work
Text: (§1) In our cells assays, the magnitude of the mRNA expression of NR4A1 was clearly dependent on the combination of NPS and NPSR1 variants (Fig 2). NR4A1 is expressed in lymphocytes upon stimulation and is anti-inflammatory. NR4A1 has been recently described as a key regulator of catecholamine production by macrophages linking sympathetic stress response and inflammation ...

chemotaxis = settings: cited from earlier work
Text: as §1

[1] = tested on: serum pro-inflammatory cytokines; settings: pigs, central and peripheral administration; cited from earlier work
Text: as §1

## Neuropeptide S (SFRNGVGTGMKKTSFQRAKS; Neuropeptide S; UniProt P0C0P6 70-89, looked up) [NPS, Neuropeptide S, variant not specified at the place]
NPSR1-Ile(107)
  mRNA expression of NR4A1, FOS, EGR1 and IER3 (in words): increased
phagocytosis
  effects on phagocytosis (in words): direct effects
chemotaxis
  effects on chemotaxis (in words): direct effects
[1]
  levels of serum pro-inflammatory cytokines (in words): could be activated
